The target of assay [1] is T1, Short transient receptor potential channel 5 (Homo sapiens) (UniProt Q9UL62).
T1 sequence (whole entry): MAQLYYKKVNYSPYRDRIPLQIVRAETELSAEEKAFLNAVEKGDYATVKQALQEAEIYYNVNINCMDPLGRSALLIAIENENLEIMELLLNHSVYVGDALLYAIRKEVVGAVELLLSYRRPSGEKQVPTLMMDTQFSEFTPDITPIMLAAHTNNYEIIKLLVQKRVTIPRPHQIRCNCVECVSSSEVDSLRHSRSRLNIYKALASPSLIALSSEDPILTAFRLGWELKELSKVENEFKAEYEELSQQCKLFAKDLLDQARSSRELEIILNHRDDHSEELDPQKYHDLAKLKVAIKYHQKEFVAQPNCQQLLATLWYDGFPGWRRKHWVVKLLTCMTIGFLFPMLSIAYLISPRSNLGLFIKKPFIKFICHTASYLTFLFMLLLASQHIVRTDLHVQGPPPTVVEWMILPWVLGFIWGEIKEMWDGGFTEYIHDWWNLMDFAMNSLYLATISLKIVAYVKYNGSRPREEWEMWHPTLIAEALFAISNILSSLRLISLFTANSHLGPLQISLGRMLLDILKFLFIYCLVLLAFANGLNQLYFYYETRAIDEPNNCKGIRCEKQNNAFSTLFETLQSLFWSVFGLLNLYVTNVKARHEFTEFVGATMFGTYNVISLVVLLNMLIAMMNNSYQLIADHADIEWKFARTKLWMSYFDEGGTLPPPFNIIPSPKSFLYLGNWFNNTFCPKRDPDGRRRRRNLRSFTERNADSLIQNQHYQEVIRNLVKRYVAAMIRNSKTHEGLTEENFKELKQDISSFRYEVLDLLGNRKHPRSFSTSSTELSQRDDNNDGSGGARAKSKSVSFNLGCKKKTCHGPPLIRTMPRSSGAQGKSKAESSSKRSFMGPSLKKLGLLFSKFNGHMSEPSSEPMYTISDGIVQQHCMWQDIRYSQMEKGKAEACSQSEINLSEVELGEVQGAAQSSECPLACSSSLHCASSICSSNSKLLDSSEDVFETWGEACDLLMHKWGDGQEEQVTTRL
The assay can be described thus: Agonist activity at human TRPC5 expressed in HEK293 cells assessed as induction of membrane depolarization at 33 uM measured for 2.5 mins by FLIPR membrane potential dye-based fluorescence assay. The format is cell-based.

The target of assay [2] is Transient receptor potential cation channel subfamily M member 8 (Mus musculus) (UniProt Q8R4D5). The assay can be described thus: Agonist activity at mouse TRPM8 expressed in HEK293 cells assessed as increase in intracellular calcium level at 33 uM measured for 2.5 mins by Fluo-8-AM dye based fluorescence assay. The format is cell-based. (In general: A change in cytosolic calcium serves as a functional read-out for many receptors and channels.)

Assay [3] has as its target Transient receptor potential cation channel subfamily A member 1 (Homo sapiens) (UniProt O75762). Description: Agonist activity at human TRPA1 expressed in HEK293 cells assessed as increase in intracellular calcium level at 33 uM measured for 2.5 mins by Fluo-8-AM dye based fluorescence assay. The format is cell-based.
For assay [4], the target named is Transient receptor potential cation channel subfamily V member 1 (Homo sapiens) (UniProt Q8NER1). Description: Agonist activity at human TRPV1 expressed in HEK293 cells assessed as increase in intracellular calcium level at 33 uM measured for 2.5 mins by Fluo-8-AM dye based fluorescence assay. The format is cell-based.
In assay [5] the target is Transient receptor potential cation channel subfamily V member 4 (Homo sapiens) (UniProt Q9HBA0). The assay can be described thus: Agonist activity at human TRPV4 expressed in HEK293 cells assessed as increase in intracellular calcium level at 33 uM measured for 2.5 mins by Fluo-8-AM dye based fluorescence assay. The format is cell-based.
For assay [6], the target named is T2, Transient receptor potential cation channel subfamily M member 5 (Homo sapiens) (UniProt Q9NZQ8).
T2 sequence (whole entry): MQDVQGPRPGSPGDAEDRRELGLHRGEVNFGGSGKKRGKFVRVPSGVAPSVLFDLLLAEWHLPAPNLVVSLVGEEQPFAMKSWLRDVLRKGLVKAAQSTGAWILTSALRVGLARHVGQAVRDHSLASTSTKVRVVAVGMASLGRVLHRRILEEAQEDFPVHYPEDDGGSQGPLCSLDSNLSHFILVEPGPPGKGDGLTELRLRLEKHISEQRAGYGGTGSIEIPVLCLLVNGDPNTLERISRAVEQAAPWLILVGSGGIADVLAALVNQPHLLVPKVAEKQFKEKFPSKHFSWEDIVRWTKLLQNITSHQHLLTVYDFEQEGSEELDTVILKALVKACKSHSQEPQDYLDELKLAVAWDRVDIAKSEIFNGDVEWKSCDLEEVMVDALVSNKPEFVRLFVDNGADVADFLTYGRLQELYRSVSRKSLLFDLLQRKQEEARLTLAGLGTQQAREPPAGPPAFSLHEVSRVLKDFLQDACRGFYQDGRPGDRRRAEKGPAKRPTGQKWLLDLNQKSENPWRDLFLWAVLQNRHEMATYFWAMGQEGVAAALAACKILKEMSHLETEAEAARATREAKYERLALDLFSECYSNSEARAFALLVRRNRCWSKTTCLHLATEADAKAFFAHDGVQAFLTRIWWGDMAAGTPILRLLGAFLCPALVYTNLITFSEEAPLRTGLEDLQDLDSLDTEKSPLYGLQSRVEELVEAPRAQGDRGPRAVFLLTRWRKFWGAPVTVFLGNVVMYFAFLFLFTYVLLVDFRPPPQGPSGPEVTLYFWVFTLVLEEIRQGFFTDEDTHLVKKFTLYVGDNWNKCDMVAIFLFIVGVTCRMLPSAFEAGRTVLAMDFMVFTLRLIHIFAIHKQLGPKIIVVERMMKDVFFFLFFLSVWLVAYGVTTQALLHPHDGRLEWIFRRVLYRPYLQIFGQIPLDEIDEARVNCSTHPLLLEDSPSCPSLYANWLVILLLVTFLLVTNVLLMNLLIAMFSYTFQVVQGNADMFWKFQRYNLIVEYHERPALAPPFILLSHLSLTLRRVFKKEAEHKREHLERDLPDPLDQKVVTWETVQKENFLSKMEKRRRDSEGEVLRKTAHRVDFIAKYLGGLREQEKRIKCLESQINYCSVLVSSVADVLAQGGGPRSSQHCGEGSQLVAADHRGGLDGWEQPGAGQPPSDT
The assay can be described thus: Agonist activity at human TRPM5 expressed in HEK293 cells assessed as induction of membrane depolarization at 33 uM measured for 2.5 mins by FLIPR membrane potential dye-based fluorescence assay. The format is cell-based.

For assay [7], the target named is Transient receptor potential cation channel subfamily M member 8 (Mus musculus) (UniProt Q8R4D5). Description: Inhibition of mouse TRPM8 expressed in HEK293 cells assessed as decrease in menthol-evoked increase in intracellular calcium level at 22 uM preincubated for 2 mins followed by menthol addition measured for 2.5 mins by Fluo8-AM dye-based fluorescence assay relative to control.

SMILES strings stand for the structures. The source made the active and inactive calls. No cut-off for these calls is given here.

The inhibition is the share of the control response that was lost under treatment.

Transient receptor potential cation channel subfamily M member 8 (Mus musculus), sequence (Q8R4D5 whole entry): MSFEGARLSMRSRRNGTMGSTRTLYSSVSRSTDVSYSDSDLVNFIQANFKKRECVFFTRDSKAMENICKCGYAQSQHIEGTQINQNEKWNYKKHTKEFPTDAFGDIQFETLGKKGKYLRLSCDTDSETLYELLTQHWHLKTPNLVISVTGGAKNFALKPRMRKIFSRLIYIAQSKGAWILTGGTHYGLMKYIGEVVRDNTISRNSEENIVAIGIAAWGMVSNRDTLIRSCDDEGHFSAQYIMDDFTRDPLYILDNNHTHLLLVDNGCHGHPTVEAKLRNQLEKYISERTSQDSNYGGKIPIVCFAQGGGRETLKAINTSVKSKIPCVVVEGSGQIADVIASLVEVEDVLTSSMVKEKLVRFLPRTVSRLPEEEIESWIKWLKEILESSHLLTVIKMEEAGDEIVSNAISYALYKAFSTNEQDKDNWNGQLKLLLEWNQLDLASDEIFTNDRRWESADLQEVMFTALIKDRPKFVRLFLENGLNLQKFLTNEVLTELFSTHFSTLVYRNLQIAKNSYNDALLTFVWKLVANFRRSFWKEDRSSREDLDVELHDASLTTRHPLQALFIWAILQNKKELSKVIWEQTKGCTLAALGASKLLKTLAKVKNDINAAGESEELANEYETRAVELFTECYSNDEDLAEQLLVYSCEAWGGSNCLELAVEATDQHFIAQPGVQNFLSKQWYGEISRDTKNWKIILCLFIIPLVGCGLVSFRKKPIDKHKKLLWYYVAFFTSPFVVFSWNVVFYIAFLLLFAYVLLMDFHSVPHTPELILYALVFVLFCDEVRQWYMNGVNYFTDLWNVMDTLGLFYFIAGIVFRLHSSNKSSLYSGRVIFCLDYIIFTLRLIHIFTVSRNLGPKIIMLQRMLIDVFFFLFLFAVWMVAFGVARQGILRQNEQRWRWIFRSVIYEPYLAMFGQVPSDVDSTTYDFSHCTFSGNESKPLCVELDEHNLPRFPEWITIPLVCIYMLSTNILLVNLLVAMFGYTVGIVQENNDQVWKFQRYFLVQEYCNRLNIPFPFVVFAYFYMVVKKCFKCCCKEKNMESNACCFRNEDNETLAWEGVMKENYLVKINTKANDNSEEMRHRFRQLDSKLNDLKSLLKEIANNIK
Transient receptor potential cation channel subfamily A member 1 (Homo sapiens), sequence (O75762 whole entry): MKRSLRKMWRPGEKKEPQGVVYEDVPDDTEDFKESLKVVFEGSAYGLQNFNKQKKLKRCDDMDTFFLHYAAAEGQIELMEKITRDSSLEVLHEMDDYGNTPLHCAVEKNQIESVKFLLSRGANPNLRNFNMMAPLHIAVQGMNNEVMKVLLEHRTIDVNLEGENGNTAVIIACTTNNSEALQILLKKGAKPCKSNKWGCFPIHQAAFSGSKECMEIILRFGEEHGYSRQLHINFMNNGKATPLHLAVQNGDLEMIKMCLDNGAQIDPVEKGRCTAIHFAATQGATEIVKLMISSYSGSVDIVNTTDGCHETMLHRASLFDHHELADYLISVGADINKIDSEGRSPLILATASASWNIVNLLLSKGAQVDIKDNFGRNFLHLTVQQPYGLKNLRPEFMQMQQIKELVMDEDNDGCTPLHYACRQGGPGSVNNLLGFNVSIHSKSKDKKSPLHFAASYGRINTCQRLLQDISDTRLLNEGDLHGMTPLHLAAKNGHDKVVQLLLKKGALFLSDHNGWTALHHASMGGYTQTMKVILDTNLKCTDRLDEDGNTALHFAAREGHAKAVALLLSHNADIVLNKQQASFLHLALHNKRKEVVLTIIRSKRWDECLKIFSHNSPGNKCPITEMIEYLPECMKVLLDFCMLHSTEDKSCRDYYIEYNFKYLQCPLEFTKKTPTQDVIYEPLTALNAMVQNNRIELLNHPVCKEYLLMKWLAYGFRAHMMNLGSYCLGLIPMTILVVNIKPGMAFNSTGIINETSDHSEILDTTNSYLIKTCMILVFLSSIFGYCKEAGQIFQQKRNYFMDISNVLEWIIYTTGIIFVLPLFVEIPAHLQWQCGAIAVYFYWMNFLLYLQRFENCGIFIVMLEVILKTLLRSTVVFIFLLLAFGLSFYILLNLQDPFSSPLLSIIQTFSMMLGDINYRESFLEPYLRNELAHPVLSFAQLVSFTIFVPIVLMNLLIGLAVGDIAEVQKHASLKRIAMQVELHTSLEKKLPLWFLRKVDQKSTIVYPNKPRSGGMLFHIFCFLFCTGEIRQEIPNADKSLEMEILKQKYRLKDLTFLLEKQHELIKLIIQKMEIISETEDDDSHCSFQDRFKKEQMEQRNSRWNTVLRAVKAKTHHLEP
Transient receptor potential cation channel subfamily V member 1 (Homo sapiens), sequence (Q8NER1 whole entry): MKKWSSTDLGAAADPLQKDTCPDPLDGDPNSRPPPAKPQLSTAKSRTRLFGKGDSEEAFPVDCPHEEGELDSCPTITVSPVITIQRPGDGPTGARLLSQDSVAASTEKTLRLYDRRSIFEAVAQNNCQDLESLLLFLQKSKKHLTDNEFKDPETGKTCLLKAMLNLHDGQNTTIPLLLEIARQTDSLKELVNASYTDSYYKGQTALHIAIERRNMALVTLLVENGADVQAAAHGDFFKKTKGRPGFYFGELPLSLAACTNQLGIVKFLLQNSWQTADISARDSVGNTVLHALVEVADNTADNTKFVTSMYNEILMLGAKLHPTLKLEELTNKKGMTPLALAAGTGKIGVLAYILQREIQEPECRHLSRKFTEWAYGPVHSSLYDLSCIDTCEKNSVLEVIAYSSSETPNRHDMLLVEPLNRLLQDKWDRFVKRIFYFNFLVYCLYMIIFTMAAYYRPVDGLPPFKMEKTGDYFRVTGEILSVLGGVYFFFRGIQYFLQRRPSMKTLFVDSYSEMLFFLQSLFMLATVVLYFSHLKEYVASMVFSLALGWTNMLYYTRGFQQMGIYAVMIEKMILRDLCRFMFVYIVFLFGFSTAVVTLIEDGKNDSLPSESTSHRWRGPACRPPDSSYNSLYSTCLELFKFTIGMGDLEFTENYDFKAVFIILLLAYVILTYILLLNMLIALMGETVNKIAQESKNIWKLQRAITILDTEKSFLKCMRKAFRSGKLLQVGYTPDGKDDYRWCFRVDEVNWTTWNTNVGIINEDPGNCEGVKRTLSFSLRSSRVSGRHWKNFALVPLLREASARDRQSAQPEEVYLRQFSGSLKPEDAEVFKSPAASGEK
Transient receptor potential cation channel subfamily V member 4 (Homo sapiens), sequence (Q9HBA0 whole entry): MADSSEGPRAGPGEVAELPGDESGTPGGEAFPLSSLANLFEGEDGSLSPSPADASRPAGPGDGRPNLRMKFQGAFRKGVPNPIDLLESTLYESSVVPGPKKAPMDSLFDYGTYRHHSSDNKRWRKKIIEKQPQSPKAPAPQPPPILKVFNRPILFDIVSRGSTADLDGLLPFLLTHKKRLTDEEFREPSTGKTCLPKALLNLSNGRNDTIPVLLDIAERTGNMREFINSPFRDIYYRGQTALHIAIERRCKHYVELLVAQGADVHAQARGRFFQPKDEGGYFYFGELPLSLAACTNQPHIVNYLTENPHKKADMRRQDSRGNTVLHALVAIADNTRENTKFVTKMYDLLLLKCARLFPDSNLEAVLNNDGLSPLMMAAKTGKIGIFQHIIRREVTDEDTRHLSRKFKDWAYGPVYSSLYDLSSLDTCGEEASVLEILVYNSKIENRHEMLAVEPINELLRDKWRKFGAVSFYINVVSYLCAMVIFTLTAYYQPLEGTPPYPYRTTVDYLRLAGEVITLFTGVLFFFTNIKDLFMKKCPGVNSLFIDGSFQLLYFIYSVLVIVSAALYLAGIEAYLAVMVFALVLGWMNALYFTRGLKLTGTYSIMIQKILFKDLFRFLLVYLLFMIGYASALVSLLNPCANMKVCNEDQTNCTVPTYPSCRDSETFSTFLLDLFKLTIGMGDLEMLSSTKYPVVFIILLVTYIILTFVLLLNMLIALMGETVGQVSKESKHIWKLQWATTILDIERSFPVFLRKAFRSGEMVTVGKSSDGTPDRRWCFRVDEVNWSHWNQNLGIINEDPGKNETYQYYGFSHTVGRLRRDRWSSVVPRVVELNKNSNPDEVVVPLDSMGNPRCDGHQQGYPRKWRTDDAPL

For the compound `CCOC(=O)N1CCC(c2cc(O)n3nc(C)c(-c4ccc(F)cc4)c3n2)CC1`, the outcome in assay [1], in assay [2], in assay [3], in assay [4], in assay [5] and in assay [6] was inactive. For the same compound, the inhibition in assay [7] came to 22%.
Regarding `Cc1nn2c(O)cc(C3CCN(C(=O)OCc4ccccc4)CC3)nc2c1-c1ccc(Cl)cc1`, the result in assay [1], in assay [2], in assay [3], in assay [4], in assay [5] and in assay [6] was inactive.
Consider `Cc1nn2c(O)cc(C3CCN(C(=O)OCc4ccccc4)CC3)nc2c1-c1ccc(F)cc1`, for which the outcome in assay [1], in assay [2], in assay [3], in assay [4], in assay [5] and in assay [6] was inactive. Further, the inhibition in assay [7] worked out at 35%.
For `CCOC(=O)N1CCC(c2cc(O)n3nc(C)c(-c4ccc(C(F)(F)F)cc4)c3n2)CC1`, the outcome in assay [1], in assay [2], in assay [3], in assay [4], in assay [5] and in assay [6] was inactive. In assay [7], the inhibition was 17%.

For the origin of these results see ChEMBL document CHEMBL4014306, “Pyrazolopyrimidines as Potent Stimulators for Transient Receptor Potential Canonical 3/6/7 Channels” (J Med Chem, 2017).
